US20220401374A1, “COMPOSITIONS AND METHODS FOR CANCER TREATMENT BY ENHANCING ANTITUMOR IMMUNITY USING TANNIC ACID-BASED NANOCAPSULES” (Purdue Research Foundation, priority 2019, published 2022)

Assays:
BMDCs [1] = experiment: Phagocytosis of pretreated DiI-labeled B16F10 cells by BMDCs; assay type: cell-based, C57BL/6 mice
plasma protein = details: cited from earlier work
BMDCs [2] = experiment: BMDC activation after coculture with pretreated B16F10 cells (CD40, CD86); assay type: cell-based, C57BL/6 mice; details: B16F10 pretreated 24 h, 200 nM CFZ-equivalent
Experimental: Bone marrow cells were collected from healthy male C57BL/6 as reported previously^71. Mice at the age of 6-8 weeks were sacrificed using CO2 asphyxiation. Using a syringe, the cavities of femur bones were flushed with RPMI 1640 medium containing penicillin/streptomycin. The collected bone marrow was pipetted several times and passed through a 40 μm cell strainer to obtain single cell suspension. The cells were collected by centrifugation at 500 rcf for 8 min, treated with ACK buffer, rinsed, and suspended in IMDM medium supplemented with 10% FBS, penicillin/streptomycin, 20 ng/mL GM-CSF, and 10 mM β-mercaptoethanol at a density of 2×10^6 cells per 10 mL to differentiate into dendritic cells (DCs). Additional medium was supplemented three days later, and the floating and loosely adherent cells were collected by centrifugation on day 6. The DC phenotype was confirmed by CD11c staining. […] The stained cells were analyzed by flow cytometry (Accuri C6, BD Biosciences, San Jose, Calif., USA). Fluorescence-minus-one (FMO) controls were used for compensation and gating. The extent of phagocytosis was expressed as the percentage of DiI^+CD11c^+ cells per total CD11c^+ cells. The DC activation was assessed by CD11c^+CD40^+ or CD11c^+CD86^+ per total CD11c^+ cells.

B16F10 cells = experiment: Cytotoxicity by MTT assay in B16F10 cells; assay type: cell-based, murine; details: 24 h total
Experimental: Bolus-pulse: Cells were incubated with CFZ-DMSO at different CFZ concentrations for 2.4 h then washed and incubated in drug-free medium for additional 21.6 h making the total incubation time of 24 h. Low-extended: Cells were incubated with at 1/10th CFZ concentrations for 24 h. Cell viability was measured by the MTT assay at the end of 24 h. % cell viability was calculated by normalizing to the viability of control cells treated with the equivalent amount of vehicle for the same period of time.
B16F10 (derived from murine melanoma; ATCC, Manassas, Va., USA) or HCC-1937 (derived from human triple negative breast cancer; ATCC, Manassas, Va., USA) were grown in RPMI 1640 or DMEM medium, respectively, supplemented with 10% FBS and penicillin (100 IU/mL) and streptomycin (100 μg/mL). Cells were seeded in a 96 well plate at a density of 4,000 cells per well. After 24 h incubation, the culture medium was replaced with fresh medium containing CFZ (as a stock solution in DMSO), CFZ-pTA or CFZ-pTA-alb. […] The stop/solubilizing solution was added to dissolve formazan crystals, and the absorbance was read at the wavelength of 562 nm by the SpectraMax M3 microplate reader.

[3] = test system: splenocytes from C57BL/6 mice; experiment: Cytotoxicity of CFZ on splenocytes, bolus-pulse vs low-extended; assay type: cell-based; details: 24 h total
Experimental: To estimate whether the sustained supply of CFZ is beneficial to sparing immune cells in the tumor microenvironment, we tested the cytotoxic effect of CFZ on splenocytes in two treatment regimens (FIG. 3A): a pulse treatment of bolus dose (bolus-pulse) and an extended treatment of low dose (low-extended), where bolus-pulse indicates incubation of cells in different CFZ concentrations for 2.4 h followed by washout and incubation in drug-free medium for additional 21.6 h making the total incubation time of 24 h, and low-extended indicates incubating cells in 1/10th CFZ concentrations for 24 h. The bolus-pulse regimen represents unformulated CFZ that is immediately available to the tumor upon intratumoral injection but rapidly diffuses to the circulation, whereas the low-extended regimen mimics the sustained release of CFZ from CFZ-pTA-alb over a prolonged period of time. Splenocytes freshly harvested from C57BL/6 mice were used as a surrogate for immune cells, as the spleen is the largest secondary lymphoid organ containing 25% of total lymphocytes^34, where B cells and T cells constitute 45-50% and 30-35%, respectively^35.
The cytotoxicity of CFZ was also measured on splenocytes. […] Cell viability was measured as described above.

CC(C)C[C@H](NC(=O)[C@H](CCc1ccccc1)NC(=O)CN1CCOCC1)C(=O)N[C@@H](Cc1ccccc1)C(=O)N[C@@H](CC(C)C)C(=O)[C@@]1(C)CO1 [CFZ, Carfilzomib]
BMDC uptake of DiI+ B16F10 cells vs untreated B16F10 cells (BMDCs [1]; 10 μM CFZ equivalent pretreatment 24 h, coculture 4 or 24 h): greater extents of DiI^+CD11c^+ cells per total CD11c^+ cells | BMDC uptake of pretreated B16F10 cells at 4° C. (BMDCs [1]; 4° C.): diminished | BMDC uptake of DiI+ cells/fragments by confocal microscopy (BMDCs [1]; Pearson's correlation coefficient of signal colocalization): increased | plasma protein binding (plasma protein): 97.6-98.2% | CD40 expression on CD11c+ BMDCs (BMDCs [2]): increased the expression of the two activation markers | CD86 expression on CD11c+ BMDCs (BMDCs [2]): increased the expression of the two activation markers | sensitivity to bolus-pulse vs low-extended regimen (B16F10 cells): equally sensitive to the two regimens | sensitivity to bolus-pulse vs low-extended regimen [3]: less sensitive to the low-extended regimen than to the bolus-pulse regimen
